Source: the NIST ThermoML archive (doi:10.1021/je100679s)

Assay: xn = mol fraction of the nth substance listed
Conditions: 101 kPa, Liquid; for electrical conductivity: DDS-307 conductivity meter

CCCCCCn1cc[n+](C)c1C.O=S(=O)([N-]S(=O)(=O)C(F)(F)F)C(F)(F)F + COC(=O)OC
Conditions | electrical conductivity [S/m] | mass density [kg/m3]
293.15 K, x1 = 0.0466 | – | 1120.02
293.15 K, x1 = 0.0774 | – | 1145.97
293.15 K, x1 = 0.1154 | – | 1173.26
293.15 K, x1 = 0.1633 | – | 1201.7
293.15 K, x1 = 0.2269 | – | 1231.14
293.15 K, x1 = 0.3131 | – | 1261.37
293.15 K, x1 = 0.4385 | – | 1292.48
293.15 K, x1 = 0.6368 | – | 1324.48
293.15 K, x1 = 0.7472 | – | 1337.22
293.15 K, x1 = 1 | – | 1358.19
298.15 K, x1 = 0.0466 | 0.34 | 1113.88
298.15 K, x1 = 0.0774 | 0.579 | 1140.01
298.15 K, x1 = 0.1154 | 0.755 | 1167.46
298.15 K, x1 = 0.1633 | 0.839 | 1195.92
298.15 K, x1 = 0.2269 | 0.813 | 1225.5
298.15 K, x1 = 0.3131 | 0.631 | 1255.94
298.15 K, x1 = 0.4385 | 0.509 | 1287.18
298.15 K, x1 = 0.6368 | 0.23 | 1319.32
298.15 K, x1 = 0.7472 | 0.164 | 1332.18
298.15 K, x1 = 1 | 0.108 | 1353.11
303.15 K, x1 = 0.0466 | 0.378 | 1107.71
303.15 K, x1 = 0.0774 | 0.649 | 1134.13
303.15 K, x1 = 0.1154 | 0.82 | 1161.84
303.15 K, x1 = 0.1633 | 0.893 | 1190.53
303.15 K, x1 = 0.2269 | 0.862 | 1220.22
303.15 K, x1 = 0.3131 | 0.689 | 1250.93
303.15 K, x1 = 0.4385 | 0.553 | 1282.32
303.15 K, x1 = 0.6368 | 0.296 | 1314.7
303.15 K, x1 = 0.7472 | 0.209 | 1327.65
303.15 K, x1 = 1 | 0.158 | 1348.71
308.15 K, x1 = 0.0466 | 0.416 | 1101.52
308.15 K, x1 = 0.0774 | 0.718 | 1128.2
308.15 K, x1 = 0.1154 | 0.884 | 1156.12
308.15 K, x1 = 0.1633 | 0.947 | 1185.04
308.15 K, x1 = 0.2269 | 0.91 | 1214.85
308.15 K, x1 = 0.3131 | 0.751 | 1245.85
308.15 K, x1 = 0.4385 | 0.61 | 1277.48
308.15 K, x1 = 0.6368 | 0.361 | 1310.14
308.15 K, x1 = 0.7472 | 0.275 | 1323.1
308.15 K, x1 = 1 | 0.213 | 1344.29
313.15 K, x1 = 0.0466 | 0.454 | 1096.1
313.15 K, x1 = 0.0774 | 0.788 | 1123
313.15 K, x1 = 0.1154 | 0.949 | 1151.09
313.15 K, x1 = 0.1633 | 1 | 1180.2
313.15 K, x1 = 0.2269 | 0.959 | 1210.16
313.15 K, x1 = 0.3131 | 0.812 | 1241.28
313.15 K, x1 = 0.4385 | 0.667 | 1272.94
313.15 K, x1 = 0.6368 | 0.433 | 1305.67
313.15 K, x1 = 0.7472 | 0.35 | 1318.62
313.15 K, x1 = 1 | 0.271 | 1339.88
318.15 K, x1 = 0.0466 | 0.492 | 1089.11
318.15 K, x1 = 0.0774 | 0.857 | 1116.3
318.15 K, x1 = 0.1154 | 1.01 | 1144.64
318.15 K, x1 = 0.1633 | 1.05 | 1174.05
318.15 K, x1 = 0.2269 | 1.01 | 1204.45
318.15 K, x1 = 0.3131 | 0.876 | 1235.85
318.15 K, x1 = 0.4385 | 0.706 | 1267.89
318.15 K, x1 = 0.6368 | 0.492 | 1300.91
318.15 K, x1 = 0.7472 | 0.399 | 1314.09
318.15 K, x1 = 1 | 0.319 | 1335.47
323.15 K, x1 = 0.0466 | 0.53 | 1082.85
323.15 K, x1 = 0.0774 | 0.927 | 1110.32
323.15 K, x1 = 0.1154 | 1.08 | 1138.89
323.15 K, x1 = 0.1633 | 1.11 | 1168.73
323.15 K, x1 = 0.2269 | 1.05 | 1199.16
323.15 K, x1 = 0.3131 | 0.933 | 1230.72
323.15 K, x1 = 0.4385 | 0.782 | 1263.01
323.15 K, x1 = 0.6368 | 0.548 | 1296.31
323.15 K, x1 = 0.7472 | 0.469 | 1309.51
323.15 K, x1 = 1 | 0.369 | 1331.06
328.15 K, x1 = 0.0466 | 0.568 | 1076.68
328.15 K, x1 = 0.0774 | 0.996 | 1104.42
328.15 K, x1 = 0.1154 | 1.14 | 1133.32
328.15 K, x1 = 0.1633 | 1.16 | 1163.27
328.15 K, x1 = 0.2269 | 1.1 | 1193.98
328.15 K, x1 = 0.3131 | 0.998 | 1225.63
328.15 K, x1 = 0.4385 | 0.834 | 1258.14
328.15 K, x1 = 0.6368 | 0.623 | 1291.79
328.15 K, x1 = 0.7472 | 0.537 | 1304.97
328.15 K, x1 = 1 | 0.426 | 1326.65
333.15 K, x1 = 0.0466 | 0.606 | 1070.28
333.15 K, x1 = 0.0774 | 1.07 | 1098.51
333.15 K, x1 = 0.1154 | 1.21 | 1127.61
333.15 K, x1 = 0.1633 | 1.22 | 1157.77
333.15 K, x1 = 0.2269 | 1.15 | 1188.58
333.15 K, x1 = 0.3131 | 1.07 | 1220.43
333.15 K, x1 = 0.4385 | 0.915 | 1253.16
333.15 K, x1 = 0.6368 | 0.686 | 1287.1
333.15 K, x1 = 0.7472 | 0.605 | 1300.47
333.15 K, x1 = 1 | 0.48 | 1322.24
